Legend:
[1] = Conversion of HPPs to parent drugs in human plasma (half life); format: in vitro ADME; conditions: 37° C.
Description: HPPs of 1H-imidazo[4,5-c]quinolin-4-amines or 1H-imidazo[4,5-c]quinolin-4-amine-related compounds converted to the parent 1H-imidazo[4,5-c]quinolin-4-amines or 1H-imidazo[4,5-c]quinolin-4-amine-related compounds quickly in good yield in human plasma.
A HPP of 1H-imidazo[4,5-c]quinolin-4-amines or 1H-imidazo[4,5-c]quinolin-4-amine-related compound (0.05 mg) was dissolved in 0.1 ml of 0.2M pH 7.4 phosphate buffer. 1 ml of human plasma, preheated to 37° C., was added into the mixture. The mixture was kept in a water bath at 37° C., and at every 10 min intervals 0.2 ml of samples were withdrawn and added to 0.4 ml of methanol to precipitate the plasma protein. The samples were centrifuged for 5 min and analyzed by HPLC.

[2] = Irritative effect or discomfort on skin of nude mice after topical application; format: in vivo; conditions: 0.1 ml of 3% in pH 7.4 phosphate buffer, back of nude mice, twice per day, 1 week
Description: Irritative effect or discomfort in the skin of mice of HPPs of 1H-imidazo[4,5-c]quinolin-4-amines or 1H-imidazo[4,5-c]quinolin-4-amine-related compounds was evaluated during a period of 1 week after the topical application of 0.1 ml of 3% of the respective test drug in pH 7.4 phosphate buffer (0.2 M) to the back of nude mice twice per day.

[3] = In vitro penetration rate across human skin in modified Franz cells; format: in vitro ADME; conditions: for In vitro Penetration Rate of HPPs (apparent flux): 3% solution in ethanol/pH 7.4 phosphate buffer (0.2 M) 70/30
Description: Penetration rates of HPPs and their parent drugs through human skin were measured in vitro by modified Franz cells. A Franz cell had two chambers, the top sample chamber and the bottom receiving chamber. The human skin tissue (360-400 μm thick) that separated the top and the receiving chambers was isolated from the anterior or posterior thigh areas.
A compound tested (0.5 mL, 3% in a mixture of ethanol and phosphate buffer (0.2M, pH 7.4) (v/v, 70/30)) was added to the sample chamber of a Franz cell. The receiving chamber contains 2 ml of 2% bovine serum albumin in saline which was stirred at 600 rpm. The amount of the tested compound penetrating the skin was determined by high-performance liquid chromatography (HPLC) method.
The lowest detectable apparent flux values in this method was 1 μg/cm^2/h.

[4] = system: Human breast cancer cells (BCAP-37)
From the text: Human breast cancer cells (BCAP-37, 3-4 mm^3 of tumor tissue was used in each mouse) were subcutaneously xenografted into nude mice (BALB).

[5] = system: herpes simplex virus Type II; experiment: Anti-Herpes activity, treated for 5 days, first treatment just after HSV infection; format: in vivo; conditions: guinea pigs
Description: (§1) The evaluation of anti-Herpes activity of these prodrugs was carried out using the method described by Kern, et al. [Antimicrob. Agents Chemother. 14, 817, (1978)].
(§2) In the second experiment, female guinea pigs (n=10) were anesthetized. Herpes simplex virus (Type I or Type II, about 10^5 plaque forming units were used) was applied intravaginally to the guinea pigs using a cotton swab. […] Virus replication was monitored by determining the amount of virus recovered with vaginal swabs taken on day 7 after infection. External lesions were scored daily for ten days using the following scale: 0, no lesion; 1, redness and swelling; 2, a few small vesicles; 3, several large vesicles; 4, large ulcers and necrosis; and 5, paralysis. The percent Lesion Inhibition was calculated as follows: 100−[(Sum of maximum lesion scores of treated group divided by the Sum of the scores of infected control)×100] (Table 6).

[6] = system: herpes simplex virus Type I; experiment: as above; format: in vivo; conditions: guinea pigs
Description: as §1, §2

interferon production [7] = experiment: Interferon inducing activity in guinea pigs (serum protection of fibroblasts from mengovirus); format: in vivo; conditions: serum 18 hours after treatment
Description: Without being bound by any mechanism, the ability to induce interferon production of the pro-drugs of the invention was evaluated in guinea pigs (n=10). Untreated guinea pigs provided controls.
Each test drug was administered to real back skin of a guinea pig at a specific dose of about 0.5-4.5 mg/kg respectively.
Each treated and control guinea pig was bled 18 hours after drug treatment and its serum was assayed for interferon activity. The serum was diluted and incubated with guinea pig fibroblast cells at 37° C. overnight in 96 well microtiter plates. The incubated cells were then challenged with an inoculum of mengovirus that was sufficient to kill untreated cells in two days. Two days after such challenge, the cells were examined both microscopically and after staining with crystal violet to determine whether the cells remained intact.
Table 4 contains the results of the study with activity/ml indicating the highest dilute on of serum that protected cells from virus challenge. Untreated guinea pigs provided controls.

[8] = system: Human colon cancer cells (LS174J); experiment: Antitumor activity, colon cancer xenograft, topical treatment from day 1; conditions: 50 μl of 3% topically twice per day from day 1; after 28 days
From the text: Human colon cancer cells (LS174J, 4-5 mm^3 of tumor tissue was used in each mouse) were subcutaneously xenografted into nude mice (BALB).

interferon production [9] = experiment: Interferon inducing activity in guinea pigs (serum protection of fibroblasts from mengovirus); format: in vivo; conditions: serum 18 hours after treatment; remark: listed apart in the source
[10] = system: Human breast cancer cells (BCAP-37); experiment: Antitumor activity, breast cancer xenograft, topical treatment from day 1; conditions: 50 μl of 3% topically once per day from day 1; after 28 days
From the text: Human breast cancer cells (BCAP-37, 4-5 mm^3 of tumor tissue was used in each mouse) were subcutaneous xenografted into nude mice (BALB).

[11] = system: herpes simplex virus Type II; experiment: Anti-Herpes activity, treated for 5 days, first treatment 5 days after HSV infection; format: in vivo; conditions: guinea pigs
Description: as §1
(§3) In the third experiment, female guinea pigs (n=10) were anesthetized. The guinea pigs were then infected with herpes simplex virus (type I or Type II, about 10^5 plaque forming units were used) intravaginally using a cotton swab. […] External lesions were scored daily for ten days using the following scale: 0, no lesion; 1, redness and swelling; 2, a few small vesicles; 3, several large vesicles; 4, large ulcers and necrosis; and 5, paralysis. The percent Lesion Inhibition was calculated as follows: 100−[(Sum of maximum lesion scores of treated group divided by the Sum of the scores of infected control)×100] (Table 7).

[12] = system: herpes simplex virus Type I; experiment: as above; format: in vivo; conditions: guinea pigs
Description: as §1, §3

[13] = system: herpes simplex virus Type II; experiment: Anti-Herpes activity, treated for 3 days before HSV infection; format: in vivo; conditions: guinea pigs
Description: (§4) The evaluation of anti-Herpes activity of these prodrugs was carried out using the method described by Kern, et al. [Antimicrob. Agents Chemother. 14, 817, (1978)]. In each experiment, female guinea pigs (n=10) were anesthetized. […] Virus replication was monitored by determining the amount of virus recovered with vaginal swabs taken on day 7 after infection. […] The percent Lesion Inhibition was calculated as follows: 100-[(Sum of maximum lesion scores of treated group divided by the Sum of the scores of infected control)×100] (Table 5).

[14] = system: herpes simplex virus Type I; experiment: as above; format: in vivo; conditions: guinea pigs
Description: as §4

[15] = at day 42, treatment from day 21 (tumors 13±2 mm×12±3 mm), 50 μl of 3% topically once per day
[16] = 0.5 mg/kg once per day for 5 days
[17] = 1.5 mg/kg once per day for 5 days
[18] = 4.5 mg/kg once per day for 5 days
[19] = 0.5 mg/kg once per day for 3 days before HSV infection
[20] = 1.5 mg/kg once per day for 3 days before HSV infection
[21] = 4.5 mg/kg once per day for 3 days before HSV infection

In the case of “sarcosine 1-benzyl-1H-imidazo[4,5-c]quinolin-4-amide hydrochloride”, the “Half life of HPPs in plasma” value [1] is reported as 29 ± 1 min, the “signs of irritative effect or discomfort in the skin” value [2] is reported as “None of any signs of irritative effect or discomfort was observed” and the “In vitro Penetration Rate of HPPs (apparent flux)” value [3] is reported as 0.16 mg/cm^2/h.

With `CC(C)Cn1cnc2c(N)nc3ccccc3c21.Cl` [1-isobutyl-1H-imidazo[4,5-c]quinolin-4-amine hydrochloride, reference compound] the “tumor size, first dimension” value [4, 15] was 17±2 mm, the “tumor size, second dimension” value [4, 15] was 15±2 mm and the death of mice ([4]; up to day 70, 50 μl of 3% topically once per day from day 21) was “all mice died by day 70”. For the same compound, the “% Lesion inhibition of the parent drug, intravaginal, Herpes type II” value [5, 16] was 2%, the “% Lesion inhibition of the parent drug, transdermal, Herpes type II” value [5, 16] was 2% and the “% Lesion inhibition of the parent drug, intravaginal, Herpes type II” value [5, 17] was 21%. The “% Lesion inhibition of the parent drug, transdermal, Herpes type II” value [5, 17] was 6%, the “% Lesion inhibition of the parent drug, intravaginal, Herpes type II” value [5, 18] was 82% and the “% Lesion inhibition of the parent drug, transdermal, Herpes type II” value [5, 18] was 54%. For the same compound, the “% Lesion inhibition of the parent drug, intravaginal, Herpes type I” value [6, 16] was 2%, the “% Lesion inhibition of the parent drug, transdermal, Herpes type I” value [6, 16] was 2% and the “% Lesion inhibition of the parent drug, intravaginal, Herpes type I” value [6, 17] was 17%. For the same compound, the “% Lesion inhibition of the parent drug, transdermal, Herpes type I” value [6, 17] was 7%, the “% Lesion inhibition of the parent drug, intravaginal, Herpes type I” value [6, 18] was 78% and the “% Lesion inhibition of the parent drug, transdermal, Herpes type I” value [6, 18] was 52%. For the same compound, the “Interferon level of the parent drug, transdermal” value (shortened to “Interferon level … transdermal”) (interferon production [7]; 0.5 mg/kg once) was 198 activity/ml, the “Interferon level … transdermal” value (interferon production [7]; 1.5 mg/kg once) was 776 activity/ml and the “Interferon level … transdermal” value (interferon production [7]; 4.5 mg/kg once) was 2,785 activity/ml. The “Tumor size, Human colon cancer, first dimension” value [8] was 17 ± 2 mm ×, the “Tumor size, Human colon cancer, second dimension” value [8] was 15 ± 2 mm and the “tumor incidence, human colon cancer” value [8] was 100%. For the same compound, the “Interferon level of the parent drug, intravaginal” value (“Interferon level … intravaginal” below) (interferon production [9]; 0.5 mg/kg once) was 385 activity/ml, the “Interferon level … intravaginal” value (interferon production [9]; 1.5 mg/kg once) was 2,982 activity/ml and the “Interferon level … intravaginal” value (interferon production [9]; 4.5 mg/kg once) was 28,982 activity/ml. For the same compound, the “In vitro Penetration Rate of Parent compounds (apparent flux)” value ([3]; 3% suspension in ethanol/pH 7.4 phosphate buffer (0.2 M) 70/30) was 0.005 mg/cm^2/h, the “Tumor size, Human breast cancer, first dimension” value [10] was 12 ± 2 mm × and the “Tumor size, Human breast cancer, second dimension” value [10] was 11 ± 2 mm. For the same compound, the “tumor incidence, human breast cancer” value [10] was 100%, the “% Lesion inhibition of the parent drug, intravaginal, Herpes type II” value [11, 16] was 2% and the “% Lesion inhibition of the parent drug, transdermal, Herpes type II” value [11, 16] was 2%. The “% Lesion inhibition of the parent drug, intravaginal, Herpes type II” value [11, 17] was 2%, the “% Lesion inhibition of the parent drug, transdermal, Herpes type II” value [11, 17] was 2% and the “% Lesion inhibition of the parent drug, intravaginal, Herpes type II” value [11, 18] was 44%. The “% Lesion inhibition of the parent drug, transdermal, Herpes type II” value [11, 18] was 24%, the “% Lesion inhibition of the parent drug, intravaginal, Herpes type I” value [12, 16] was 2% and the “% Lesion inhibition of the parent drug, transdermal, Herpes type I” value [12, 16] was 2%. For the same compound, the “% Lesion inhibition of the parent drug, intravaginal, Herpes type I” value [12, 17] was 2%, the “% Lesion inhibition of the parent drug, transdermal, Herpes type I” value [12, 17] was 2% and the “% Lesion inhibition of the parent drug, intravaginal, Herpes type I” value [12, 18] was 37%. The “% Lesion inhibition of the parent drug, transdermal, Herpes type I” value [12, 18] was 22%, the “% Lesion inhibition of the parent drug, intravaginal, Herpes type II” value [13, 19] was 5% and the “% Lesion inhibition of the parent drug, transdermal, Herpes type II” value [13, 19] was 2%. The “% Lesion inhibition of the parent drug, intravaginal, Herpes type II” value [13, 20] was 28%, the “% Lesion inhibition of the parent drug, transdermal, Herpes type II” value [13, 20] was 2% and the “% Lesion inhibition of the parent drug, intravaginal, Herpes type II” value [13, 21] was 87%. The “% Lesion inhibition of the parent drug, transdermal, Herpes type II” value [13, 21] was 48%, the “% Lesion inhibition of the parent drug, intravaginal, Herpes type I” value [14, 19] was 4% and the “% Lesion inhibition of the parent drug, transdermal, Herpes type I” value [14, 19] was 2%. For the same compound, the “% Lesion inhibition of the parent drug, intravaginal, Herpes type I” value [14, 20] was 23%, the “% Lesion inhibition of the parent drug, transdermal, Herpes type I” value [14, 20] was 3% and the “% Lesion inhibition of the parent drug, intravaginal, Herpes type I” value [14, 21] was 85%. For the same compound, the “% Lesion inhibition of the parent drug, transdermal, Herpes type I” value [14, 21] was 45%.

With `CCCCn1cnc2c(NC(=O)CNC)nc3ccccc3c21.Cl` [sarcosine 1-butyl-1H-imidazo[4,5-c]quinolin-4-amide hydrochloride] the “Half life of HPPs in plasma” value [1] was 25 ± 2 min, the “signs of irritative effect or discomfort in the skin” value [2] was “None of any signs of irritative effect or discomfort was observed” and the “In vitro Penetration Rate of HPPs (apparent flux)” value [3] was 0.13 mg/cm^2/h.
